Experimental findings from PMC11243685, “Synthesis and Enzymatic Evaluation of a Small Library of Substituted Phenylsulfonamido-Alkyl Sulfamates towards Carbonic Anhydrase II” (Molecules, 2024) are described below.

Molecules are shown by their SMILES.

The target of data set [1] is T1, bovine carbonic anhydrase II (Bos taurus, UniProt P00921).
T1 construct: carbonic anhydrase II (bCAII, ≥3000 W-A units/mg from bovine erythrocytes) from Sigma; purchased Sigma (Taufkirchen, Germany); host or cells: isolated from bovine erythrocytes
Briefly: Enzymatic assay of bCA II inhibition, absorbance at 415 nm.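 As to all read-outs here: enzyme is carbonic anhydrase II isolated from bovine erythrocytes, with its activity followed photometrically at 415 nm.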 The class given is biochemical. To be noted: for inhibition at 1 µM: 1 μM concentration of the inhibitor, triplicate with three technical replicas; for Ki: CA II, from Lineweaver–Burk, Dixon and Cornish Bowden plots, read-out: Inhibition constant Ki.
Experimental: The enzymatic assays have been performed with carbonic anhydrase II (bCAII, ≥3000 W-A units/mg from bovine erythrocytes) from Sigma (Taufkirchen, Germany) using a BMG Labtech Spectrostar Omega apparatus (BMG Labtech, Ortenberg, Germany) measuring λ = 415 nm. Conditions have been described previously [72]. Ki and Ki′ values were determined from Lineweaver–Burk, Dixon and Cornish Bowden plots, respectively.

T1 sequence (P00921 whole entry): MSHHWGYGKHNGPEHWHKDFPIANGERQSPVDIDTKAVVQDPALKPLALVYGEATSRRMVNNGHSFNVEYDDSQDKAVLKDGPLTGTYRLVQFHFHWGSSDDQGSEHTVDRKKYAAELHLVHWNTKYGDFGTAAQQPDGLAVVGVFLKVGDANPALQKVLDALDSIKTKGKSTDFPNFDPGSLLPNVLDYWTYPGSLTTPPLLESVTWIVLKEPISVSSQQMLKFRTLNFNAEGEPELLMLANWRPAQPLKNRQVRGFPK

For orientation: inhibition means the share of the control response that was lost under treatment. Lower therefore signals a response near the control. By melting point is commonly meant the temperature of the solid-liquid transition. Turning to `Cc1ccc(S(=O)(=O)NCCCOS(N)(=O)=O)cc1` [13b, 3-[(4-Methylphenyl)sulfonamido]propyl Sulfamate], the melting point lay in the range of 86 to 87 °C. Besides, the inhibition at 1 µM in data set [1] (bCA II) was determined as 63.8 ± 0.8%.
Take `NS(=O)(=O)OCCCCCCNS(=O)(=O)c1ccccc1` [5b, 6-(Phenylsulfonamido]hexyl Sulfamate]: the melting point fell in the range of 64 to 66 °C. The compound further yielded an inhibition at 1 µM in data set [1] (bCA II) of 56 ± 0.5%.
Taken in the same sequence, the figures for `CC(C)(C)c1cccc(S(=O)(=O)NCCCCCCCCOS(N)(=O)=O)c1` [64b, 8-[(3-(tert-Butyl)phenyl)sulfonamido]octyl Sulfamate] were 57 to 59 °C and 16 ± 0.4%.
In the same order, the values of `NS(=O)(=O)OCCCCCCCCNS(=O)(=O)c1ccc(C23CC4CC(CC(C4)C2)C3)cc1` [77b, 8-[(4-(Adamantan-1-yl)phenyl)sulfonamido]octyl Sulfamate] are 85 to 86 °C and 32.6 ± 0.4%.
For `NS(=O)(=O)OCCCCCCCCCNS(=O)(=O)c1ccc(C23CC4CC(CC(C4)C2)C3)cc1` [78b, 9-[(4-(Adamantan-1-yl)phenyl)sulfonamido]nonyl Sulfamate], the melting point lay within 94 to 96 °C. The compound also gave an inhibition at 1 µM in data set [1] (bCA II) of 36.1 ± 1.8%.
In the same order, the values of `CC(C)(C)c1ccc(S(=O)(=O)NCCCCOS(N)(=O)=O)cc1` [51b, 4-[(4-(tert-Butyl)phenyl)sulfonamido]butyl Sulfamate] are 100 to 102 °C and 44.9 ± 0.4%.
In the same order, the values of `NS(=O)(=O)OCCCCCCCCCCNS(=O)(=O)c1ccccc1` [9b, 10-(Phenylsulfonamido]decyl Sulfamate] are 89 to 91 °C and 10.7 ± 0.4%.
Consider `NS(=O)(=O)OCCCCCCCCCCNS(=O)(=O)c1ccc(C23CC4CC(CC(C4)C2)C3)cc1` [79b, 10-[(4-(Adamantan-1-yl)phenyl)sulfonamido]decyl Sulfamate], for which the melting point fell in the range of 87 to 89 °C. In data set [1] (bCA II), the inhibition at 1 µM was found to be 40.1 ± 0.8%.
In the same order, the values of `Cc1cccc(S(=O)(=O)NCCCCCCCCOS(N)(=O)=O)c1` [25b, 8-[(3-Methylphenyl)sulfonamido]octyl Sulfamate] are 54 to 56 °C and 38.8 ± 0.1%.
In the same order, the values of `CC(C)c1ccc(S(=O)(=O)NCCCCCCCCOS(N)(=O)=O)cc1` [39b, 8-[(4-Isopropylphenyl)sulfonamido]octyl Sulfamate] are 69 to 70 °C and 28.1 ± 0.5%.
In the case of `Cc1cccc(S(=O)(=O)NCCCCOS(N)(=O)=O)c1` [21b, 4-[(3-Methylphenyl)sulfonamido]butyl Sulfamate], the melting point is 62 to 64 °C. Also, in data set [1] (bCA II), the inhibition at 1 µM was found to be 32.2 ± 0.6%.
Taken in the same sequence, the figures for `CC(C)(C)c1ccc(S(=O)(=O)NCCCCCCCOS(N)(=O)=O)cc1` [54b, 7-[(4-(tert-Butyl)phenyl)sulfonamido]heptyl Sulfamate] were 95 to 96 °C and 28.4 ± 0.4%.
The compound `NS(=O)(=O)OCCCNS(=O)(=O)c1ccccc1` [2b, 3-(Phenylsulfonamido]propyl Sulfamate] returned a melting point of 64 to 66 °C. Moreover, 1 µM produced 39.9 ± 0.4% inhibition in data set [1] (bCA II).
In the same order, the values of `Cc1ccc(S(=O)(=O)NCCCCCCCOS(N)(=O)=O)cc1` [17b, 7-[(4-Methylphenyl)sulfonamido]heptyl Sulfamate] are 85 to 86 °C and 42.8 ± 0.5%.
Taken in the same sequence, the figures for `CC(C)(C)c1ccc(S(=O)(=O)NCCCOS(N)(=O)=O)cc1` [50b, 3-[(4-(tert-Butyl)phenyl)sulfonamido]propyl Sulfamate] were 85 to 86 °C and 63.4 ± 0.6%.
In the same order, the values of `Cc1cccc(S(=O)(=O)NCCCCCOS(N)(=O)=O)c1` [22b, 5-[(3-Methylphenyl)sulfonamido]pentyl Sulfamate] are 67 to 68 °C and 49.1 ± 0.2%.
For `Cc1cccc(S(=O)(=O)NCCCCCCOS(N)(=O)=O)c1` [23b, 6-[(3-Methylphenyl)sulfonamido]hexyl Sulfamate], the melting point lay within 74 to 75 °C. In data set [1] (bCA II), this compound gave an inhibition at 1 µM of 51.8 ± 0.7%.
Taken in the same sequence, the figures for `Cc1ccc(S(=O)(=O)NCCCCOS(N)(=O)=O)cc1` [14b, 4-[(4-Methylphenyl)sulfonamido]butyl Sulfamate] were 66 to 68 °C and 42.9 ± 0.1%.
`CC(C)(C)c1ccc(S(=O)(=O)NCCCCCCCCCOS(N)(=O)=O)cc1` [56b, 9-[(4-(tert-Butyl)phenyl)sulfonamido]nonyl Sulfamate] had a melting point of 106 to 107 °C. In data set [1] (bCA II), this compound displayed an inhibition at 1 µM of 10 ± 0.6%.
Taken in the same sequence, the figures for `Cc1cccc(S(=O)(=O)NCCOS(N)(=O)=O)c1` [19b, 2-[(3-Methylphenyl)sulfonamido]ethyl Sulfamate] were 36 to 38 °C and 59.5 ± 0.1%.
As a reminder, the Ki is a measure of affinity in units of concentration, obtained from inhibition or displacement. The compound `Cc1ccc(S(=O)(=O)NCCOS(N)(=O)=O)cc1` [12b, 2-[(4-Methylphenyl)sulfonamido]ethyl Sulfamate] yielded a melting point of 79 to 81 °C. In addition, the Ki in data set [1] was found to be 760 ± 30 nM. This compound registered an inhibition at 1 µM in data set [1] (bCA II) of 75.8 ± 0.6%.
For `Cc1cccc(S(=O)(=O)NCCCOS(N)(=O)=O)c1` [20b, 3-[(3-Methylphenyl)sulfonamido]propyl Sulfamate], the melting point is 73 to 74 °C. Besides, in data set [1] (bCA II), the inhibition at 1 µM came out at 48.4 ± 0.1%.
In the same order, the values of `Cc1ccc(S(=O)(=O)NCCCCCCCCOS(N)(=O)=O)cc1` [18b, 8-[(4-Methylphenyl)sulfonamido]octyl Sulfamate] are 98 to 100 °C and 54.7 ± 0.6%.
Taken in the same sequence, the figures for `Cc1ccccc1S(=O)(=O)NCCCOS(N)(=O)=O` [27b, 3-[(2-Methylphenyl)sulfonamido]propyl Sulfamate] were 68 to 70 °C and 50 ± 0.8%.
Taken in the same sequence, the figures for `NS(=O)(=O)OCCCCCCCCCNS(=O)(=O)c1ccccc1` [8b, 9-(Phenylsulfonamido]nonyl Sulfamate] were 82 to 84 °C and 55.4 ± 0.7%.
`CC(C)c1ccc(S(=O)(=O)NCCOS(N)(=O)=O)cc1` [33b, 2-[(4-Isopropylphenyl)sulfonamido]ethyl Sulfamate] displayed a melting point of 81 to 82 °C. Besides, the inhibitory constant (Ki) in data set [1] came to 840 ± 20 nM. In addition, the inhibition at 1 µM in data set [1] (bCA II) stood at 63.2 ± 0.4%.
The compound `Cc1ccc(S(=O)(=O)NCCCCCCOS(N)(=O)=O)cc1` [16b, 6-[(4-Methylphenyl)sulfonamido]hexyl Sulfamate] showed a melting point of 49 to 50 °C. For the same compound, in data set [1] (bCA II), 1 µM produced 40.3 ± 0.7% inhibition.
Taken in the same sequence, the figures for `NS(=O)(=O)OCCCCCCCNS(=O)(=O)c1ccccc1` [6b, 7-(Phenylsulfonamido]heptyl Sulfamate] were 59 to 61 °C and 56 ± 0.8%.
`NS(=O)(=O)OCCCCCCCCCCCCNS(=O)(=O)c1ccccc1` [11b, 12-(Phenylsulfonamido]dodecyl Sulfamate] yielded a melting point of 102 to 103 °C. 1 µM produced 5.9 ± 0.9% inhibition in data set [1] (bCA II).
Taken in the same sequence, the figures for `NS(=O)(=O)OCCCCCCNS(=O)(=O)c1ccc(C2CCCCC2)cc1` [72b, 6-[(4-Cyclohexylphenyl)sulfonamido]hexyl Sulfamate] were 86 to 88 °C and 8.6 ± 0.6%.
For `CC(C)(C)c1ccc(S(=O)(=O)NCCCCO)cc1` [51a, 4-(tert-Butyl)-N-(4-hydroxybutyl)benzene Sulfonamide], the melting point lay within 58 to 60 °C.
With `CC(C)c1ccc(S(=O)(=O)NCCCCCCCOS(N)(=O)=O)cc1` [38b, 7-[(4-Isopropylphenyl)sulfonamido]heptyl Sulfamate], the melting point lay within 70 to 72 °C. Further, in data set [1] (bCA II), 1 µM produced 30.3 ± 0.1% inhibition.
Taken in the same sequence, the figures for `CC(C)(C)c1ccc(S(=O)(=O)NCCCCCCCCCCOS(N)(=O)=O)cc1` [57b, 10-[(4-(tert-Butyl)phenyl)sulfonamido]decyl Sulfamate] were 92 to 93 °C and 20.6 ± 0.6%.
In the same order, the values of `NS(=O)(=O)OCCCCCCCCCNS(=O)(=O)c1ccc(C2CCCCC2)cc1` [75b, 9-[(4-Cyclohexylphenyl)sulfonamido]nonyl Sulfamate] are 88 to 89 °C and 32.1 ± 0.8%.
Consider `Cc1ccccc1S(=O)(=O)NCCOS(N)(=O)=O` [26b, 2-[(2-Methylphenyl)sulfonamido]ethyl Sulfamate], for which the melting point was in the range of 70 to 72 °C. In addition, the Ki in data set [1] turned out to be 1100 ± 30 nM. In data set [1] (bCA II), the inhibition at 1 µM came out at 69.1 ± 0.7%.
Regarding `CC(C)(C)c1ccc(S(=O)(=O)NCCCCCOS(N)(=O)=O)cc1` [52b, 5-[(4-(tert-Butyl)phenyl)sulfonamido]pentyl Sulfamate], the melting point is 88 to 89 °C. Further, 1 µM produced 35.9 ± 0.4% inhibition in data set [1] (bCA II).
For the compound `CC(C)(C)c1ccc(S(=O)(=O)NCCOS(N)(=O)=O)cc1` [49b, 2-[(4-(tert-Butyl)phenyl)sulfonamido]ethyl Sulfamate], the melting point fell in the range of 92 to 93 °C. Besides, the Ki in data set [1] worked out at 670 ± 50 nM. In data set [1] (bCA II), the mode of inhibition entry is “competitive inhibitor” and the inhibition at 1 µM was 75.6 ± 0.4%.
As to `Cc1ccc(S(=O)(=O)NCCCCCOS(N)(=O)=O)cc1` [15b, 5-[(4-Methylphenyl)sulfonamido]pentyl Sulfamate], the melting point fell in the range of 94 to 95 °C. Also, 1 µM produced 58.9 ± 0.2% inhibition in data set [1] (bCA II).
In turn, `CC(C)(C)c1ccc(S(=O)(=O)NCCCCCCCCCCO)cc1` [57a, 4-(tert-Butyl)-N-(10-hydroxydecyl)benzene Sulfonamide] registered a melting point of 75 to 76 °C.
In turn, `O=S(=O)(NCCCCCCCCCCCO)c1ccccc1` [10a, N-(11-Hydroxyundecyl)benzene Sulfonamide] came in with a melting point of 58 to 59 °C.
In turn, `Cc1ccc(S(=O)(=O)NCCCCO)cc1` [14a, N-(4-Hydroxybutyl)-4-methylbenzene Sulfonamide] came in with a melting point of 50 to 51 °C.
On the same count and under the same terms, in the case of `Cc1ccc(S(=O)(=O)NCCO)cc1` [12a, N-(2-Hydroxyethyl)-4-methylbenzene Sulfonamide] it was 55 to 57 °C.
